Test results taken from article PMC6981581, “N-(2-Arylmethylthio-4-Chloro-5-Methylbenzenesulfonyl)amide Derivatives as Potential Antimicrobial Agents—Synthesis and Biological Studies” (International Journal of Molecular Sciences, 2019).
Converted amounts (≈) assume the structure as drawn. “And” between values parts separate entries of the source, which are not always exact repeats. Equal entries are not always repeated. Where two headings read alike, the source gives them in different places.

Experiments:
Assay type in all cases: cell-based
[1] = system: Enterococcus faecalis ATCC 11420; test: Broth dilution MIC/MBC, reference strain
Experimental: (§1) The tests were carried out using a serial dilution method, allowing the determination of MIC (minimal concentration inhibiting bacterial growth), MBC (minimal bactericidal concentration), and MFC (minimal fungicidal concentration) values.
(§2) Antimicrobial activity was tested using the following reference strains: Staphylococcus aureus ATCC 6538 (MSSA), Staphylococcus aureus ATCC 43300 (MRSA), Staphylococcus epidermidis PCM 2118, Escherichia coli ATCC 11229, Pseudomonas aeruginosa ATCC 15442, Proteus vulgaris NCTC 4635, Enterococcus faecalis ATCC 11420, and Candida albicans ATCC 10231.
(§3) A broth dilution method was used to determine minimal inhibitory concentration (MIC) for tested compounds as recommended by Clinical Laboratory Standards Institute (CLSI) guidelines. Investigated compounds were diluted in Mueller Hinton Broth 2 (Sigma-Aldrich Co., St. Louis, MO, USA) in polypropylene 96-well plates and initial inoculum 5 × 10^5 cfu/mL were incubated at 37 °C for 18 h. MIC was taken as the lowest drug concentration at which an observable growth was inhibited. […] The loopful (10 µL) of the tested sample was transferred to Tryptic Soy Agar (TSA, Becton-Dickinson, Franklin Lakes, NJ, USA) and incubated at 37 °C for 48 h. […] Drug Solutions were made fresh on the day of the assay. All experiments were performed in triplicate.

[2] = system: Escherichia coli ATCC 11229; test: Broth dilution MIC/MBC, reference strain
Experimental: as §1, §2, §3

[3] = system: Proteus vulgaris NCTC 4635; test: Broth dilution MIC/MBC, reference strain
Experimental: as §1, §2, §3

[4] = system: Pseudomonas aeruginosa ATCC 15442; test: Broth dilution MIC/MBC, reference strain
Experimental: as §1, §2, §3

[5] = system: Staphylococcus aureus ATCC 43300 (MRSA); test: Broth dilution MIC/MBC, reference strain
Experimental: as §1, §2, §3

[6] = system: Staphylococcus aureus ATCC 6538 (MSSA); test: Broth dilution MIC/MBC, reference strain
Experimental: as §1, §2, §3

[7] = system: Staphylococcus epidermidis PCM 2118; test: Broth dilution MIC/MBC, reference strain
Experimental: as §1, §2, §3

[8] = system: Candida albicans ATCC 10231; test: Broth dilution MIC/MFC, reference fungal strain
Experimental: as §1, §2, §3

[9] = system: S.aureus 50 (MRSA); test: Broth dilution MIC/MBC, clinical MRSA isolate; settings: Staphylococcus aureus, clinical MRSA S.aureus 50
Source text: (§4) […]. Both MRSA and MSSA strains were derived from various human infections.
(§5) […]. Five methicillin-resistant S. aureus strains were isolated from nose (n = 1), bronchoalveolar lavage (n = 1), sputum (n = 1), wound (n = 1), and blood (n = 1); five methicillin-susceptible S. aureus strains were isolated from throat (n = 1), bronchoalveolar lavage (n = 1), sputum (n = 1), abscess (n = 1), and blood (n = 1).
(§6) The identity of S. aureus isolates was confirmed with conventional methods and with Pastorex Staph-Plus latex agglutination kit (Bio-Rad, Marnes-la-Coquette, France) and verified applying the polymerase chain reaction (PCR) of S. aureus-specific region of the thermonuclease gene, nuc. Resistance to methicillin was first verified using cefoxitin disk (30 µg), and then, identified based on the presence of mecA gene. S. aureus ATCC®25923 (methicillin-susceptible) and S. aureus ATCC®43300 (MDR) were applied as the reference strains. Both the reference and clinical strains were stored at −80 °C, in Tryptic Soy Broth (TSB, Becton-Dickinson, Franklin Lakes, NJ, USA) supplemented with 15% glycerol.
as §3

[10] = system: S.aureus 51 (MRSA); test: Broth dilution MIC/MBC, clinical MRSA isolate; settings: Staphylococcus aureus, clinical MRSA S.aureus 51
Source text: as §4, §5, §6, §3

[11] = system: S.aureus 52 (MRSA); test: Broth dilution MIC/MBC, clinical MRSA isolate; settings: Staphylococcus aureus, clinical MRSA S.aureus 52
Source text: as §4, §5, §6, §3

[12] = system: S.aureus 53 (MRSA); test: Broth dilution MIC/MBC, clinical MRSA isolate; settings: Staphylococcus aureus, clinical MRSA S.aureus 53
Source text: as §4, §5, §6, §3

[13] = system: S.aureus 54 (MRSA); test: Broth dilution MIC/MBC, clinical MRSA isolate; settings: Staphylococcus aureus, clinical MRSA S.aureus 54
Source text: as §4, §5, §6, §3

[14] = system: HaCaT cell line (human keratinocyte); test: MTT cell viability assay; settings: MTT assay, 72 h incubation, mean ± SD, read-out: IC50 HaCaT
[15] = system: Gram-positive reference strains; test: Broth dilution MIC/MBC, summary over Gram-positive reference strains; settings: summary over the Gram-positive reference strains (Table 1)
Experimental: […]. The tests were carried out using a serial dilution method, allowing the determination of MIC (minimal concentration inhibiting bacterial growth), MBC (minimal bactericidal concentration), and MFC (minimal fungicidal concentration) values.
as §2, §3

Cc1cc(S(=O)(=O)NC(=O)CCC2CCCCC2)c(SCc2cccc(C(F)(F)F)c2)cc1Cl [Compound 10, N-[4-Chloro-5-methyl-2-(3-trifluoromethylbenzylthio)benzenesulfonyl]-3-cyclohexylpropanamide]
MBC/MIC ([1]; E. f. ATCC 11420): 8 | MBC ([1]; Enterococcus faecalis, ATCC11420, E. faecalis ATCC 11420, read-out: MBC): 64 µg/mL (≈ 120 µM) | MIC ([1]; Enterococcus faecalis, ATCC11420, E. faecalis ATCC 11420, read-out: MIC): 8 µg/mL (≈ 15 µM) | MBC/MIC ([2]; E. c. ATCC 11229): >1 | MBC ([2]; Escherichia coli, ATCC11229, E. coli ATCC 11229, read-out: MBC): > 128 µg/mL | MIC ([2]; Escherichia coli, ATCC11229, E. coli ATCC 11229, read-out: MIC): 128 µg/mL (≈ 240 µM) | MBC/MIC ([3]; P. v. NCTC 4635): >1 | MBC ([3]; Proteus vulgaris, NCTC4635, P. vulgaris NCTC 4635, read-out: MBC): > 128 µg/mL | MIC ([3]; Proteus vulgaris, NCTC4635, P. vulgaris NCTC 4635, read-out: MIC): 128 µg/mL (≈ 240 µM) | MBC/MIC ([4]; P. a. ATCC 15442): >1 | MBC ([4]; Pseudomonas aeruginosa, ATCC15442, P. aeruginosa ATCC 15442, read-out: MBC): > 128 µg/mL | MIC ([4]; Pseudomonas aeruginosa, ATCC15442, P. aeruginosa ATCC 15442, read-out: MIC): 128 µg/mL (≈ 240 µM) | MBC/MIC ([5]; S. a. ATCC 43300): 2 | MBC ([5]; Staphylococcus aureus, S. aureus ATCC 43300, read-out: MBC): 16 µg/mL (≈ 30 µM) | MIC ([5]; Staphylococcus aureus, S. aureus ATCC 43300, read-out: MIC): 8 µg/mL (≈ 15 µM) | MBC/MIC ([6]; S. a. ATCC 6538): 8 | MBC ([6]; Staphylococcus aureus, S. aureus ATCC 6538, read-out: MBC): 64 µg/mL (≈ 120 µM) | MIC ([6]; Staphylococcus aureus, S. aureus ATCC 6538, read-out: MIC): 8 µg/mL (≈ 15 µM) | MBC/MIC ([7]; S. e. PCM 2118): 1 | MBC ([7]; S. epidermidis PCM 2118): 8 µg/mL (≈ 15 µM) | MBC ([7]; Staphylococcus epidermidis, PCM2118, S. epidermidis PCM 2118, read-out: MBC): 4 to 16 µg/mL (≈ 7.49 to 30 µM) | MIC ([7]; Staphylococcus epidermidis, PCM2118, S. epidermidis PCM 2118, read-out: MIC): 8 µg/mL (≈ 15 µM) | MFC/MIC ([8]; C. a. ATCC 10231): 2 | MFC ([8]; Candida albicans, ATCC10231, C. albicans ATCC 10231, read-out: MFC): 128 µg/mL (≈ 240 µM) | MIC ([8]; Candida albicans, ATCC10231, C. albicans ATCC 10231, read-out: MIC): 64 µg/mL (≈ 120 µM) | MBC ([9]; read-out: MBC): > 128 µg/mL | MIC ([9]; read-out: MIC): 4 µg/mL (≈ 7.49 µM) | MBC ([10]; read-out: MBC): > 128 µg/mL | MIC ([10]; read-out: MIC): 4 µg/mL (≈ 7.49 µM) | MBC ([11]; read-out: MBC): > 128 µg/mL | MIC ([11]; read-out: MIC): 4 µg/mL (≈ 7.49 µM) | MBC ([12]; read-out: MBC): > 128 µg/mL | MIC ([12]; read-out: MIC): 4 µg/mL (≈ 7.49 µM) | MBC ([13]; read-out: MBC): > 128 µg/mL | MIC ([13]; read-out: MIC): 4 µg/mL (≈ 7.49 µM) | IC50 [14]: 95 µg/mL and 178 µM | MBC [15]: 8 to 64 µg/mL | MIC [15]: 8 µg/mL (≈ 15 µM) | MBC ([15]; read-out: MBC): 8 to 64 µg/mL (≈ 15 to 120 µM) | MIC ([15]; read-out: MIC): 8 µg/mL (≈ 15 µM)
